Experimental data published in patent US9681664B2, “Macrocyclic picolinamides as fungicides” (Dow Agrosciences LLC, priority 2012, dated 2017).
Like-named read-outs stand apart in the source and are kept apart here.

Key:
Type in all cases: in vivo
Cercospora beticola = experiment: Leaf spot of sugar beets (CERCBE) disease control; conditions: 24 h, 1 Day Protectant, high volume, read-out: Disease Control CERCBE 1 DP
Protocol: Technical grades of materials were dissolved in acetone, which were then mixed with nine volumes of water containing 110 ppm Triton X-100. The fungicide solutions were applied onto wheat seedlings using an automated booth sprayer to run-off. All sprayed plants were allowed to air dry prior to further handling. All fungicides were evaluated using the aforementioned method for their activity vs. all target diseases. Wheat leaf blotch and brown rust activity were also evaluated using track spray applications, in which case the fungicides were formulated as EC formulations, containing 0.1% Trycol 5941 in the spray solutions. Sugar beet plants (variety HH88) were grown in soil-less Metro mix and trimmed regularly to maintain a uniform plant size prior to test. Plants were inoculated with a spore suspension 24 hr after fungicide treatments. Inoculated plants were kept in a dew chamber at 22° C. for 48 hr then incubated in a greenhouse set at 24° C. under a clear plastic hood with bottom ventilation until disease symptoms were fully expressed. Fungicide formulation, application and disease assessment on the sprayed leaves followed the procedures as described in the Example A.

[1] = test system: Blumeria graminis f. sp. tritici; Synonym: Erysiphe graminis f. sp. tritici; experiment: Wheat powdery mildew (ERYSGT) disease control; conditions: 24 h, 1 Day Protectant, high volume, read-out: Disease Control ERYSGT 1 DP
Protocol: Technical grades of materials were dissolved in acetone, which were then mixed with nine volumes of water containing 110 ppm Triton X-100. The fungicide solutions were applied onto wheat seedlings using an automated booth sprayer to run-off. All sprayed plants were allowed to air dry prior to further handling. All fungicides were evaluated using the aforementioned method for their activity vs. all target diseases. Wheat leaf blotch and brown rust activity were also evaluated using track spray applications, in which case the fungicides were formulated as EC formulations, containing 0.1% Trycol 5941 in the spray solutions. Wheat plants (variety Yuma) were grown from seed in a greenhouse in 50% mineral soil/50% soil-less Metro mix until the first leaf was fully emerged, with 7-10 seedlings per pot. These plants were inoculated by dusting with infected stock plants 24 hr after fungicide treatments. After inoculation the plants were kept in a greenhouse set at 20° C. for disease to develop. Fungicide formulation, application and disease assessment on the sprayed leaves followed the procedures as described in the Example A.

[2] = test system: Puccinia triticina; Synonym: Puccinia recondite f. sp. tritici; experiment: Wheat brown rust (PUCCRT) disease control on wheat seedlings; conditions: Puccinia triticina, High volume application, 100 ppm
Procedure, shortened: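 Yuma wheat grown to first fully emerged leaf was inoculated with Puccinia triticina spore suspension either before or after fungicide treatment, held overnight at 22° C. and 100% RH in darkness, then kept at 24° C. Fungicide applied by booth sprayer to run-off (acetone/water, 110 ppm Triton X-100) or as EC by track spray.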

[3] = test system: Blumeria graminis f. sp. hordei; Synonym: Erysiphe graminis f. sp. hordei; experiment: Barley powdery mildew (ERYSGH) disease control; conditions: 24 h, 1 Day Protectant, high volume, read-out: Disease Control ERYSGH 1 DP
Protocol: (§1) Technical grades of materials were dissolved in acetone, which were then mixed with nine volumes of water containing 110 ppm Triton X-100. The fungicide solutions were applied onto wheat seedlings using an automated booth sprayer to run-off. All sprayed plants were allowed to air dry prior to further handling. All fungicides were evaluated using the aforementioned method for their activity vs. all target diseases. Wheat leaf blotch and brown rust activity were also evaluated using track spray applications, in which case the fungicides were formulated as EC formulations, containing 0.1% Trycol 5941 in the spray solutions. Barley seedlings (variety Harrington) were propagated in soil-less Metro mix, with each pot having 8 to 12 plants, and used in the test when first leaf was fully emerged. Test plants were inoculated by dusting with infected stock plants 24 hr after fungicide treatments. After inoculation the plants were kept in a greenhouse set at 20° C. for disease to develop. Fungicide formulation, application and disease assessment on the sprayed leaves followed the procedures as described in the Example A.

Uncinula necator = experiment: Grape powdery mildew (UNCINE) disease control; conditions: Erysiphe necator, 24 h, High volume application, 1 Day Protectant, read-out: UNCINE 1 DP disease control
Protocol: Technical grades of materials were dissolved in acetone, which were then mixed with nine volumes of water containing 110 ppm Triton X-100. The fungicide solutions were applied onto wheat seedlings using an automated booth sprayer to run-off. All sprayed plants were allowed to air dry prior to further handling. All fungicides were evaluated using the aforementioned method for their activity vs. all target diseases. Wheat leaf blotch and brown rust activity were also evaluated using track spray applications, in which case the fungicides were formulated as EC formulations, containing 0.1% Trycol 5941 in the spray solutions. Grape seedlings (variety Carignane) were grown in soil-less Metro mix, with one plant per pot, and used in the test when approximately one month old. Plants were inoculated 24 hr after fungicide treatment by shaking spores from infected leaves over test plants. Plants were maintained in a greenhouse set at 20° C. until disease was fully developed. Fungicide formulation, application and disease assessment on the sprayed leaves followed the procedures as described in the Example A.

Rhyncosporium secalis = experiment: Barley scald (RHYNSE) disease control; conditions: 24 h, High volume application, 1 Day Protectant, read-out: RHYNSE 1 DP disease control
Protocol: as §1, with “inoculated by an aqueous spore suspension of Rhyncosporium secalis 24 hr” for “inoculated by dusting with infected stock plants 24 hr”, “kept in a dew room at 20° C. with 100% relative humidity for 48 hr. The plants were then transferred to a greenhouse” for “kept in a greenhouse”

[4] = 24 h, 1 Day Protectant, read-out: PUCCRT 1DP disease control
[5] = 72 h, 3 Day Curative, read-out: PUCCRT 3DC disease control

Row | Structure (SMILES) | pest or weed control at 100 ppm (Cercospora beticola) [%] | pest or weed control at 100 ppm [1] [%] | pest or weed control at 100 ppm [2, 4] [%] | pest or weed control at 100 ppm [2, 5] [%] | pest or weed control at 100 ppm [3] [%] | pest or weed control at 100 ppm (Uncinula necator) [%] | pest or weed control at 100 ppm (Rhyncosporium secalis) [%]
1 | COc1ccnc(C(=O)N[C@H]2CCC[C@H](OCC(C)C)[C@@H](OCC(C)C)[C@H](C)OC2=O)c1OCOC(C)=O [F29] | 80 to 100 | 80 to 100 | 80 to 100 | 80 to 100 | 80 to 100 | 80 to 100 | 
2 | COc1ccnc(C(=O)N[C@H]2CCC[C@H](OCC(C)C)[C@@H](Oc3ccccc3)[C@H](C)OC2=O)c1OCOC(=O)C(C)C [F34] | 80 to 100 | 0 to 80 | 80 to 100 | 80 to 100 | 0 to 80 | 0 to 80 | 
3 | COc1ccnc(C(=O)N[C@H]2CCC[C@H](Oc3ccccc3)[C@@H](OCC(C)C)[C@H](C)OC2=O)c1OCOC(C)=O [F28] | 80 to 100 | 0 to 80 | 80 to 100 | 80 to 100 | 80 to 100 | 0 to 80 | 80 to 100
4 | COc1ccnc(C(=O)N[C@H]2CCC[C@H](OCc3ccccc3)[C@@H](Oc3ccccc3)[C@H](C)OC2=O)c1OCOC(C)=O [F31] | 80 to 100 | 0 to 80 | 80 to 100 | 80 to 100 | 0 to 80 | 0 to 80 | 
5 | COc1ccnc(C(=O)N[C@H]2CCC[C@H](OCC(C)C)[C@@H](OCC(C)C)[C@H](C)OC2=O)c1OCOC(=O)C(C)C [F37] | 80 to 100 | 0 to 80 | 80 to 100 | 80 to 100 | 80 to 100 | 80 to 100 | 
6 | COc1ccnc(C(=O)N[C@H]2CCC[C@H](OCC(C)C)[C@@H](OC3CCCC3)[C@H](C)OC2=O)c1OCOC(C)=O [F39] | 80 to 100 | 80 to 100 | 80 to 100 | 80 to 100 | 80 to 100 | 0 to 80 | 80 to 100
7 | COc1ccnc(C(=O)N[C@H]2CCC[C@H](Oc3ccccc3)[C@@H](Oc3ccccc3)[C@H](C)OC2=O)c1OCOC(=O)C(C)C [F36] | 80 to 100 | < 0 | 80 to 100 | 80 to 100 | 0 to 80 | 0 to 80 | 
8 | COc1ccnc(C(=O)N[C@H]2CCC[C@H](Oc3ccccc3)[C@@H](OCC(C)C)[C@H](C)OC2=O)c1OCOC(=O)C(C)C [F35] | 80 to 100 | 0 to 80 | 80 to 100 | 80 to 100 | 80 to 100 | 80 to 100 | 
9 | COc1ccnc(C(=O)N[C@H]2CCC[C@H](OCc3ccccc3)[C@@H](OCc3ccccc3)[C@H](C)OC2=O)c1OCOC(C)=O [F30] | 0 to 80 | < 0 | 80 to 100 | 80 to 100 | 0 to 80 | 0 to 80 | 
10 | COc1ccnc(C(=O)N[C@H]2CCC[C@H](Oc3ccccc3)[C@@H](Oc3ccccc3)[C@H](C)OC2=O)c1OCOC(C)=O [F20] | 80 to 100 | 0 to 80 | 80 to 100 | 80 to 100 | 0 to 80 | 0 to 80 | 80 to 100
11 | COc1ccnc(C(=O)N[C@H]2CCC[C@H](OCC(C)C)[C@@H](OC3CCCC3)[C@H](C)OC2=O)c1OCOC(=O)C(C)C [F38] | 80 to 100 | 0 to 80 | 80 to 100 | 80 to 100 | 80 to 100 | 80 to 100 | 
